Laboratory results reported in ChEMBL document CHEMBL1201862, “PubChem BioAssay data set” (2004).
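1) Cells in 96-well plates. 2) Compound, 48 h, 5 concentrations. 3) Linear interpolation between surrounding doses. 4) Unreached endpoint = highest concentration. At the GI50, growth is halved.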 Calls of active or inactive are those of the source. No stated cut-off is given here; in the data, active = GI50 up to about 1.1 µM and inactive = higher.

Experiments:
Assay in all cases: inhibition of tumour cell growth, NCI panel, 48 h
SN12C = test system: SN12C
HCT-15 = test system: HCT-15
SK-MEL-28 = test system: SK-MEL-28
MOLT-4 = test system: MOLT-4
SF-295 = test system: SF-295
HOP-62 = test system: HOP-62
DMS-273 = test system: DMS-273
HOP-18 = test system: HOP-18
M19-MEL = test system: M19-MEL
SK-OV-3 = test system: SK-OV-3
OVCAR-4 = test system: OVCAR-4
IGROV-1 = test system: IGROV-1
SK-MEL-2 = test system: SK-MEL-2
K562 = test system: K562
DLD-1 = test system: DLD-1
SK-MEL-5 = test system: SK-MEL-5
NCI-H226 = test system: NCI-H226
OVCAR-8 = test system: OVCAR-8
HL-60 = test system: HL-60
786-0 = test system: 786-0
A498 = test system: A498
EKVX = test system: EKVX
KM-20L2 = test system: KM-20L2
RPMI-8226 = test system: RPMI-8226
OVCAR-5 = test system: OVCAR-5
SF-268 = test system: SF-268
Malme-3M = test system: Malme-3M
SNB-19 = test system: SNB-19
UO-31 = test system: UO-31
HCT-116 = test system: HCT-116
ACHN = test system: ACHN
LXFL 529 = test system: LXFL 529
NCI-H522 = test system: NCI-H522
M14 = test system: M14
DMS-114 = test system: DMS-114
NCI-H460 = test system: NCI-H460
HT-29 = test system: HT-29
TK-10 = test system: TK-10
UACC-62 = test system: UACC-62
OVCAR-3 = test system: OVCAR-3
LOX IMVI = test system: LOX IMVI
CCRF-CEM = test system: CCRF-CEM
KM12 = test system: KM12
NCI-H23 = test system: NCI-H23
A549 = test system: A549
SNB-78 = test system: SNB-78
UACC-257 = test system: UACC-257
U-251 = test system: U-251
COLO 205 = test system: COLO 205
HCC 2998 = test system: HCC 2998
CAKI-1 = test system: CAKI-1
SW-620 = test system: SW-620
SNB-75 = test system: SNB-75
Hs-578T = test system: Hs-578T
HOP-92 = test system: HOP-92
RXF 393 = test system: RXF 393
PC-3 = test system: PC-3
MCF7 = test system: MCF7
BT-549 = test system: BT-549
NCI/ADR-RES = test system: NCI/ADR-RES
SF-539 = test system: SF-539

COC(=O)[C@@]12C(=O)C=CC(=O)C1C1C(=CC2C)OC2OC3(CCCCC3)OC21 (some centres not stated) was tested, and the GI50 (SN12C) was 17.7 µM (inactive), the GI50 (HCT-15) was 13.2 µM and the GI50 (SK-MEL-28) was 16.9 µM (inactive). The GI50 (MOLT-4) was 6.11 µM (inactive), the GI50 (SF-295) was 18.9 µM (inactive) and the GI50 (HOP-62) was 19.9 µM (inactive). The GI50 (DMS-273) was 19 µM (inactive), the GI50 (HOP-18) was 20.2 µM (inactive) and the GI50 (M19-MEL) was 19.2 µM (inactive). For the same compound, the GI50 (SK-OV-3) was 18.6 µM (inactive), the GI50 (OVCAR-4) was 16.7 µM (inactive) and the GI50 (IGROV-1) was 18.1 µM (inactive). For the same compound, the GI50 (SK-MEL-2) was 19 µM (inactive), the GI50 (K562) was 6.9 µM (inactive) and the GI50 (DLD-1) was 18.5 µM (inactive). The GI50 (SK-MEL-5) was 19.3 µM (inactive), the GI50 (NCI-H226) was 18.8 µM (inactive) and the GI50 (OVCAR-8) was 16.4 µM (inactive). The GI50 (HL-60) was 3.85 µM (inactive), the GI50 (786-0) was 17.5 µM (inactive) and the GI50 (A498) was 17.9 µM (inactive). The GI50 (EKVX) was 19.7 µM (inactive), the GI50 (KM-20L2) was 20.5 µM (inactive) and the GI50 (RPMI-8226) was 4.89 µM (inactive). For the same compound, the GI50 (OVCAR-5) was 14.3 µM (inactive), the GI50 (SF-268) was 20.9 µM (inactive) and the GI50 (Malme-3M) was 20.2 µM (inactive). For the same compound, the GI50 (SNB-19) was 17.7 µM (inactive), the GI50 (UO-31) was 16.8 µM (inactive) and the GI50 (HCT-116) was 15.9 µM (inactive). For the same compound, the GI50 (ACHN) was 16.9 µM (inactive), the GI50 (LXFL 529) was 13.5 µM (inactive) and the GI50 (NCI-H522) was 9.71 µM (inactive). For the same compound, the GI50 (M14) was 17.8 µM (inactive), the GI50 (DMS-114) was 15.7 µM (inactive) and the GI50 (NCI-H460) was 18.8 µM (inactive). The GI50 (HT-29) was 21.6 µM (inactive), the GI50 (TK-10) was 17.3 µM (inactive) and the GI50 (UACC-62) was 15.2 µM (inactive). The GI50 (OVCAR-3) was 19.6 µM (inactive), the GI50 (LOX IMVI) was 20.5 µM (inactive) and the GI50 (CCRF-CEM) was 2.52 µM (inactive). The GI50 (KM12) was 20 µM (inactive), the GI50 (NCI-H23) was 19.4 µM (inactive) and the GI50 (A549) was 19.3 µM (inactive). The GI50 (SNB-78) was 20.6 µM (inactive), the GI50 (UACC-257) was 17.1 µM (inactive) and the GI50 (U-251) was 17.7 µM (inactive). For the same compound, the GI50 (COLO 205) was 14.2 µM (inactive), the GI50 (HCC 2998) was 14.5 µM (inactive) and the GI50 (CAKI-1) was 18.2 µM (inactive). The GI50 (SW-620) was 19.3 µM (inactive) and the GI50 (SNB-75) was 18.9 µM (inactive).
COc1ccc2[nH]c3c(C)c4cc[n+](C)cc4c(C)c3c2c1 was tested, and the GI50 (SN12C) was 0.116 µM (active), the GI50 (Hs-578T) was 0.199 µM (active) and the GI50 (HOP-92) was 3.21 µM (inactive). The GI50 (SK-MEL-28) was 2.18 µM (inactive), the GI50 (SF-295) was 0.332 µM (active) and the GI50 (HOP-62) was 0.621 µM (active). The GI50 (DMS-273) was 1.09 µM (active), the GI50 (HOP-18) was 3.59 µM (inactive) and the GI50 (M19-MEL) was 0.944 µM (active). The GI50 (SK-OV-3) was 6.78 µM (inactive), the GI50 (OVCAR-4) was 3.37 µM (inactive) and the GI50 (IGROV-1) was 2.19 µM (inactive). The GI50 (SK-MEL-2) was 3.85 µM (inactive), the GI50 (DLD-1) was 1.87 µM (inactive) and the GI50 (SK-MEL-5) was 1.76 µM (inactive). For the same compound, the GI50 (NCI-H226) was 0.301 µM (active), the GI50 (OVCAR-8) was 0.305 µM (active) and the GI50 (RXF 393) was 1.32 µM (inactive). For the same compound, the GI50 (HL-60) was 22 µM (inactive), the GI50 (PC-3) was 3.54 µM (inactive) and the GI50 (EKVX) was 1.16 µM (inactive). The GI50 (KM-20L2) was 3.17 µM (inactive), the GI50 (OVCAR-5) was 9.51 µM (inactive) and the GI50 (SF-268) was 0.197 µM (active). The GI50 (Malme-3M) was 1.06 µM (active), the GI50 (SNB-19) was 0.273 µM (active) and the GI50 (UO-31) was 21.7 µM (inactive). For the same compound, the GI50 (HCT-116) was 2 µM (inactive), the GI50 (ACHN) was 14 µM (inactive) and the GI50 (NCI-H522) was 0.562 µM (active). The GI50 (DMS-114) was 0.412 µM (active), the GI50 (MCF7) was 2.39 µM (inactive) and the GI50 (NCI-H460) was 1.64 µM (inactive). For the same compound, the GI50 (HT-29) was 4.83 µM (inactive), the GI50 (BT-549) was 1.87 µM (inactive) and the GI50 (UACC-62) was 3.48 µM (inactive). The GI50 (OVCAR-3) was 3.09 µM (inactive), the GI50 (LOX IMVI) was 10.2 µM (inactive) and the GI50 (CCRF-CEM) was 1.72 µM (inactive). The GI50 (KM12) was 1.62 µM (inactive), the GI50 (NCI-H23) was 0.649 µM (active) and the GI50 (SNB-78) was 0.571 µM (active). For the same compound, the GI50 (UACC-257) was 12.1 µM (inactive), the GI50 (U-251) was 0.191 µM (active) and the GI50 (HCC 2998) was 3.15 µM (inactive). The GI50 (NCI/ADR-RES) was 22 µM (inactive), the GI50 (SW-620) was 1.11 µM (active) and the GI50 (SNB-75) was 0.228 µM (active). For the same compound, the GI50 (SF-539) was 0.345 µM (active).
